The text below walks through data of ChEMBL document CHEMBL4813964, “2,5-Disubstituted furan derivatives containing 1,3,4-thiadiazole moiety as potent α-glucosidase and E. coli β-glucuronidase inhibitors” (Eur J Med Chem, 2021).

The test system of test [1] is Escherichia coli. Description: Inhibition of recombinant Escherichia coli […] expressed in Escherichia coli BL21(DE3) assessed as reduction in PNP formation at 10 uM using beta-PNPG as substrate incubated for 30 mins relative to control.
The test system of test [2] is Saccharomyces cerevisiae. Description: Inhibition of Saccharomyces cerevisiae alpha-glucosidase assessed as reduction in PNP formation at 10 uM using alpha-PNPG as substrate incubated for 30 mins relative to control.
Test [3] is described as follows: Inhibition of Escherichia coli […] expressed in Escherichia coli BL21 (DE3) assessed as reduction in PNP formation using beta-PNPG as substrate incubated for 30 mins.
Test [4] in a line: Inhibition of Saccharomyces cerevisiae alpha-glucosidase assessed as reduction in PNP formation using alpha-PNPG as substrate incubated for 30 mins.
A short description of test [5]: Uncompetitive inhibition of recombinant Escherichia coli […] expressed in Escherichia coli […] using beta-PNPG as substrate incubated for 30 mins by Lineweaver-Burk plot analysis.
The test system of test [6] is L02. Kind of test: Cytotoxicity against human L02 cells assessed as reduction in cell viability incubated for 48 hrs by CCK8 assay. Type of test: cell-based. The note with it: L02, 48 h.
A short description of test [7]: Competitive inhibition of Saccharomyces cerevisiae alpha-glucosidase using alpha-PNPG as substrate incubated for 30 mins by Lineweaver-Burk plot analysis.
Test [8] deals with Saccharomyces cerevisiae. Description: Potency index, ratio of ACAR IC50 to test compound IC50 for inhibition of Saccharomyces cerevisiae alpha-glucosidase assessed as reduction in PNP formation using alpha-PNPG as substrate incubated for 30 mins.
Test [9] in a line: Mixed inhibition of recombinant Escherichia coli […] expressed in Escherichia coli BL21(DE3) using beta-PNPG as substrate incubated for 30 mins by Lineweaver-Burk plot analysis.
The subject of test [10] is Escherichia coli. Kind of test: Potency index, ratio of DSL IC50 to test compound IC50 for inhibition of Escherichia coli […] expressed in Escherichia coli BL21 (DE3) assessed as reduction in PNP formation using beta-PNPG as substrate incubated for 30 mins.

As to `O=C(Sc1nncs1)c1ccc(-c2ccc(F)cc2F)o1`, the inhibition stood at 76.4% in test [1] and 71% in [2]. Besides, the IC50 was 1260 nM in test [3] and 1140 nM in test [4].
For the compound `COc1ccc(-c2ccc(C(=O)Sc3nnc(C)s3)o2)cc1`, the inhibition in test [1] is 87.5%; in [2] it was 33.1%. Further, the IC50 in test [3] is 303 nM.
On to `Clc1ccc2c(c1)C(N1CCNCC1)=Nc1ccccc1O2` [AMOXAPINE], for which the inhibition in test [1] was found to be 99.8%. Also, in test [3], the IC50 was 83 nM. For the same compound, in test [5], the Ki was 50 nM.
As to `Cc1nnc(SC(=O)c2ccc(-c3ccccc3Cl)o2)s1`, the figures for the inhibition in [1] and in [2] were 100% and 94.1%, respectively. For the same compound, the half-inhibitory concentration (IC50) amounted to 230 nM in test [3] and 774 nM in [4].
Regarding `Cc1nnc(SC(=O)c2ccc(-c3c(F)cccc3F)o2)s1`, the inhibition was found to be 96.1% in [1] and 90.8% in [2]. For the same compound, the results for the 50% inhibitory concentration (IC50) in [3] and in test [4] were 415 nM and 863 nM, respectively.
Turning to `Cc1nnc(SC(=O)c2ccc(-c3cccc([N+](=O)[O-])c3)o2)s1`, the inhibition amounted to 92.5% in test [1] and 20.1% in test [2]. Besides, the IC50 in test [3] was found to be 1200 nM.
Consider `O=C(Sc1nncs1)c1ccc(-c2ccccc2F)o1`, for which the figures for the inhibition in [1] and in test [2] were 87.8% and 82.5%, respectively. Also, the results for the IC50 in [3] and in test [4] were 1140 nM and 1670 nM, respectively.
On to `O=C(Sc1nncs1)c1ccc(-c2c(F)cccc2F)o1`, for which the inhibition in test [1] stood at 92.9%; in test [2], 81.6%. Besides, the IC50 in [3] worked out at 849 nM; in test [4], 903 nM.
In the same order, the values of `O=C(Sc1nncs1)c1ccc(-c2cccc([N+](=O)[O-])c2)o1` are 74.6%, 79.6%, 212 nM and 1570 nM.
The like results for `O=C(Sc1nncs1)c1ccc(-c2ccc(F)cc2)o1` were, in that order, 94.4%, 76.5%, 526 nM and 652 nM.
For `O=C(Sc1nncs1)c1ccc(-c2ccc(Cl)cc2)o1`, the inhibition in [1] was 92%; in test [2] it was 68.9%. Besides, the IC50 was determined as 83.3 µM in [6], 2080 nM in test [3] and 186 nM in [4]. Also, affinity in test [7] was put at a Ki of 0.05 µM. The Ratio IC50 in test [8] came out at 2800.
As to `Cc1nnc(SC(=O)c2ccc(-c3ccccc3[N+](=O)[O-])o2)s1`, the results for the inhibition in test [1] and in test [2] were 98.5% and 81.6%, respectively. The IC50 turned out to be 564 nM in test [3] and 658 nM in test [4].
As for `COc1ccc(-c2ccc(C(=O)Sc3nncs3)o2)cc1`, the figures for the inhibition in [1] and in test [2] were 93% and 74.4%, respectively. For the same compound, the IC50 turned out to be 533 nM in [3] and 239 nM in [4].
For the compound `O=C(O)[C@@H](O)[C@H]1OC(=O)[C@H](O)[C@H]1O` [D-SACCHARIC ACID 1,4-LACTONE], the Ki in test [9] was determined as 30.9 µM. Also, the inhibition in test [1] turned out to be 11.6%. Also, in [3], the IC50 stood at 67300 nM.
With `O=C(Sc1nncs1)c1ccc(-c2ccccc2Cl)o1`, the inhibition in test [1] came to 88.1%; in test [2] it was 82.1%. Moreover, the IC50 in [3] is 5370 nM; in test [4], 1350 nM.
For the compound `Cc1nnc(SC(=O)c2ccc(-c3ccc([N+](=O)[O-])cc3)o2)s1`, the inhibition in test [1] came out at 92.9%; in [2], 62.9%. The IC50 in [3] was found to be 247 nM; in test [4], 2500 nM.
Take `C[C@H]1O[C@H](O[C@H]2[C@H](O)[C@@H](O)[C@@H](O[C@H]3[C@H](O)[C@@H](O)C(O)O[C@@H]3CO)O[C@@H]2CO)[C@H](O)[C@@H](O)[C@@H]1N[C@H]1C=C(CO)[C@@H](O)[C@H](O)[C@H]1O` (stereo not given in full) [ACARBOSE]: the Ki in test [7] worked out at 378 µM. In addition, in test [2], the inhibition was 11.1%. Also, the IC50 in test [4] is 517000 nM.
For `O=C(Sc1nncs1)c1ccc(-c2ccc([N+](=O)[O-])cc2)o1`, the inhibition in test [2] worked out at 75.1%. In addition, the IC50 in test [4] is 1810 nM.
For `O=C(Sc1nncs1)c1ccc(-c2ccc(Br)cc2)o1`, the inhibition was 76.4% in test [1] and 66.7% in [2]. The values for the IC50 in [3] and in test [4] were 379 nM and 526 nM, respectively.
As for `Cc1nnc(SC(=O)c2ccc(-c3ccc(Cl)cc3)o2)s1`, the inhibition is 77.8% in test [1] and 48.8% in [2]. For the same compound, in test [3], the IC50 turned out to be 695 nM.
Take `O=C(Sc1nncs1)c1ccc(-c2cccc(F)c2)o1`: the inhibition came out at 95.9% in test [1] and 82.6% in test [2]. Besides, the IC50 in test [3] is 425 nM; in [4], 646 nM.
`Cc1nnc(SC(=O)c2ccc(-c3cccc(F)c3)o2)s1`: the inhibition came to 91.7% in test [1] and 59.1% in [2]. Besides, the IC50 stood at 86.2 µM in [6], 82 nM in test [3] and 2950 nM in test [4]. In [10], the Ratio IC50 came out at 820. For the same compound, the Ki in test [5] turned out to be 60 nM.
`Cc1ccc(-c2ccc(C(=O)Sc3nnc(C)s3)o2)cc1`: the inhibition stood at 85.7% in test [1] and 44.4% in test [2]. Moreover, in test [3], the IC50 turned out to be 508 nM.
For the compound `Cc1nnc(SC(=O)c2ccc(-c3ccccc3F)o2)s1`, the inhibition in test [1] is 96.6%; in test [2], 69.9%. In addition, the IC50 in [3] worked out at 307 nM; in test [4] it was 2740 nM.
In the same order, the values of `Cc1nnc(SC(=O)c2ccc(-c3ccc(F)cc3F)o2)s1` are 86.7%, 65.8%, 357 nM and 1940 nM.
Turning to `Cc1nnc(SC(=O)c2ccc(-c3ccccc3)o2)s1`, the inhibition in [1] came to 95.9%; in [2], 73%. Moreover, the results for the IC50 in [3] and in [4] were 923 nM and 823 nM, respectively.
The like results for `Cc1nnc(SC(=O)c2ccc(-c3ccc(F)cc3)o2)s1` were, in that order, 78.8%, 58.7%, 796 nM and 1850 nM.
The like results for `Cc1nnc(SC(=O)c2ccc(-c3cccc(Cl)c3)o2)s1` were, in that order, 99.6%, 82.5%, 551 nM and 728 nM.
On to `Cc1nnc(SC(=O)c2ccc(-c3ccc(Br)cc3)o2)s1`, for which the results for the inhibition in [1] and in [2] were 82.7% and 50.8%, respectively. Moreover, the IC50 in [3] was determined as 755 nM; in test [4], 11000 nM.
In the same order, the values of `Cc1ccc(-c2ccc(C(=O)Sc3nncs3)o2)cc1` are 90.1%, 78.2%, 312 nM and 286 nM.
The like results for `O=C(Sc1nncs1)c1ccc(-c2cccc(Cl)c2)o1` were, in that order, 83.8%, 77.1%, 148 nM and 680 nM.
With `O=C(Sc1nncs1)c1ccc(-c2ccccc2)o1`, the inhibition in [1] was 105%; in test [2], 79.5%. The IC50 in test [3] was determined as 1130 nM; in test [4], 613 nM.
Regarding `O=C(Sc1nncs1)c1ccc(-c2ccccc2[N+](=O)[O-])o1`, the figures for the inhibition in [1] and in test [2] were 90.5% and 95.7%, respectively. The 50% inhibitory concentration (IC50) is more than 100 µM in test [6], 341 nM in [3] and 223 nM in test [4].
